According to ChEMBL document CHEMBL1158580, “Novel 1,3,5-triphenyl-2-pyrazolines as anti-infective agents” (2010):
Values after ≈ are worked out from the molar mass of the structure shown.

Tests used:
[1] = system: Mycobacterium tuberculosis; assay: Antimycobacterial activity against Mycobacterium tuberculosis H37Rv assessed as reduction in relative light units at 50 ug/ml after 72 hrs by luciferase reporter phage assay; assay type: functional; set-up: scale not given: the % may be the effect or the level left
[2] = system: Mycobacterium tuberculosis; assay: Antimycobacterial activity against Mycobacterium tuberculosis H37Rv assessed as reduction in relative light units at 100 ug/ml after 72 hrs by luciferase reporter phage assay; assay type: functional; set-up: scale not given: the % may be the effect or the level left
Escherichia coli = assay: Antibacterial activity against Escherichia coli NCIM 2931 by microdilution method; assay type: functional
Proteus vulgaris = assay: Antibacterial activity against Proteus vulgaris NCIM 2813 by microdilution method; assay type: functional
Klebsiella aerogenes = assay: Antibacterial activity against Enterobacter aerogenes NCIM 5139 by microdilution method; assay type: functional
Staphylococcus aureus = assay: Antibacterial activity against Staphylococcus aureus NCIM 5021 by microdilution method; assay type: functional
Salmonella enterica = assay: Antibacterial activity against Salmonella typhi NCIM 2501 by microdilution method; assay type: functional, Salmonella enterica subsp. enterica serovar Typhi
Bacillus subtilis = assay: Antibacterial activity against Bacillus subtilis NCIM 2718 by microdilution method; assay type: functional
Fusarium proliferatum = assay: Antifungal activity against Fusarium proliferatum NCIM 1105 assessed as fungal growth inhibition at 2 mg/ml by microdilution method; assay type: functional
Candida tropicalis = assay: Antifungal activity against Candida tropicalis NCIM 3556 assessed as fungal growth inhibition at 2 mg/ml by microdilution method; assay type: functional
Aspergillus flavus = assay: Antifungal activity against Aspergillus flavus NCIM 594 assessed as fungal growth inhibition at 2 mg/ml by microdilution method; assay type: functional
Aspergillus niger = assay: Antifungal activity against Aspergillus niger NCIM 596 assessed as fungal growth inhibition at 2 mg/ml by microdilution method; assay type: functional

Row | Compound | Activity [1] | Activity [2] | MIC (Escherichia coli) | MIC (Proteus vulgaris) | MIC (Klebsiella aerogenes) | MIC (Staphylococcus aureus) | MIC (Salmonella enterica) | MIC (Bacillus subtilis) | inhibition at 2000 µg/mL (Fusarium proliferatum) | inhibition at 2000 µg/mL (Candida tropicalis) | inhibition at 2000 µg/mL (Aspergillus flavus) | inhibition at 2000 µg/mL (Aspergillus niger)
1 | CSc1ccc(C2CC(c3ccccc3)=NN2c2ccccc2)cc1 (configuration not stated) | 0% | 17.65% | 45 µM (≈ 15.5 µg/mL) | 726 µM (≈ 250 µg/mL) | 363 µM (≈ 125 µg/mL) | 726 µM (≈ 250 µg/mL) | 0.726 µM (≈ 0.25 µg/mL) | 363 µM (≈ 125 µg/mL) | 94.1% | 73.1% | 30.5% | 93.5%
2 | CSc1ccc(C2CC(c3ccc(Cl)cc3)=NN2c2ccccc2)cc1 (configuration not stated) | 0% | 17.43% | 82 µM (≈ 31.1 µg/mL) | 660 µM (≈ 250 µg/mL) | 330 µM (≈ 125 µg/mL) | 660 µM (≈ 250 µg/mL) | 0.33 µM (≈ 0.125 µg/mL) | 330 µM (≈ 125 µg/mL) | 72.9% | 94.4% | 13.1% | 93%
3 | CS(=O)(=O)c1ccc(C2CC(c3ccccc3)=NN2c2ccccc2)cc1 (configuration not stated) | 1.7% | 50.71% | 166 µM (≈ 62.5 µg/mL) | 332 µM (≈ 125 µg/mL) | 332 µM (≈ 125 µg/mL) | 664 µM (≈ 250 µg/mL) | 0.332 µM (≈ 0.125 µg/mL) | 332 µM (≈ 125 µg/mL) | 97.6% | 30.6% | 65.8% | 47.2%
4 | CS(=O)(=O)c1ccc(C2CC(c3ccc(Cl)cc3)=NN2c2ccccc2)cc1 (configuration not stated) | 0.76% | 15.46% | 152 µM (≈ 62.5 µg/mL) | 304 µM (≈ 125 µg/mL) | 304 µM (≈ 125 µg/mL) | 608 µM (≈ 250 µg/mL) | 0.304 µM (≈ 0.125 µg/mL) | 304 µM (≈ 125 µg/mL) | 88.3% | 95.6% | 88.4% | 97.5%
5 | CSc1ccc(C2CC(c3cccc([N+](=O)[O-])c3)=NN2c2ccccc2)cc1 (configuration not stated) | 0% | 5.7% | 160 µM (≈ 62.3 µg/mL) | 321 µM (≈ 125 µg/mL) | 321 µM (≈ 125 µg/mL) | 642 µM (≈ 250 µg/mL) | 0.321 µM (≈ 0.125 µg/mL) | 321 µM (≈ 125 µg/mL) | 56.9% | 45.9% | 19% | 65.2%
6 | COc1ccc(C2=NN(c3ccccc3)C(c3ccc(SC)cc3)C2)cc1OC (configuration not stated) | 32.66% | 30.3% | 155 µM (≈ 62.7 µg/mL) | 309 µM (≈ 125 µg/mL) | 155 µM (≈ 62.7 µg/mL) | 618 µM (≈ 250 µg/mL) | 0.309 µM (≈ 0.125 µg/mL) | 309 µM (≈ 125 µg/mL) | 93.2% | 9.12% | 63.8% | 9.65%
7 | CSc1ccc(C2CC(c3cccc4c3OCO4)=NN2c2ccccc2)cc1 (configuration not stated) | 10.59% | 27.81% | 80 µM (≈ 31.1 µg/mL) | 322 µM (≈ 125 µg/mL) | 322 µM (≈ 125 µg/mL) | 644 µM (≈ 250 µg/mL) | 0.322 µM (≈ 0.125 µg/mL) | 322 µM (≈ 125 µg/mL) | 81.3% | 17.1% | 31.2% | 71.4%
8 | CSc1ccc(C2CC(c3ccc(C)cc3)=NN2c2ccccc2)cc1 (configuration not stated) | 0% | 19.26% | 174 µM (≈ 62.4 µg/mL) | 349 µM (≈ 125 µg/mL) | 349 µM (≈ 125 µg/mL) | 697 µM (≈ 250 µg/mL) | 0.349 µM (≈ 0.125 µg/mL) | 349 µM (≈ 125 µg/mL) | 83.8% | 95.3% | 38.6% | 93%
9 | CSc1ccc(C2CC(c3cccc(Br)c3)=NN2c2ccccc2)cc1 (configuration not stated) | 8.55% | 20.17% | 295 µM (≈ 125 µg/mL) | 295 µM (≈ 125 µg/mL) | 295 µM (≈ 125 µg/mL) | 591 µM (≈ 250 µg/mL) | 0.295 µM (≈ 0.125 µg/mL) | 295 µM (≈ 125 µg/mL) | 90.1% | 65.1% | 91.4% | 64.6%
10 | CCOc1ccc(C2=NN(c3ccccc3)C(c3ccc(SC)cc3)C2)cc1 (configuration not stated) | 36.44% | 48.35% | 161 µM (≈ 62.6 µg/mL) | 322 µM (≈ 125 µg/mL) | 322 µM (≈ 125 µg/mL) | 643 µM (≈ 250 µg/mL) | 0.322 µM (≈ 0.125 µg/mL) | 322 µM (≈ 125 µg/mL) | 94.3% | 95.4% | 38.2% | 85.3%
11 | CSc1ccc(C2CC(c3ccc(F)cc3)=NN2c2ccccc2)cc1 (configuration not stated) | 0% | 4.75% | 22 µM (≈ 7.97 µg/mL) | 345 µM (≈ 125 µg/mL) | 345 µM (≈ 125 µg/mL) | 690 µM (≈ 250 µg/mL) | 0.69 µM (≈ 0.25 µg/mL) | 172 µM (≈ 62.3 µg/mL) | 98.7% | 97.4% | 94.8% | 97.3%
12 | COc1ccc(C2=NN(c3ccccc3)C(c3ccc(SC)cc3)C2)cc1 (configuration not stated) | 0% | 24.87% | 83 µM (≈ 31.1 µg/mL) | 334 µM (≈ 125 µg/mL) | 334 µM (≈ 125 µg/mL) | 668 µM (≈ 250 µg/mL) | 0.334 µM (≈ 0.125 µg/mL) | 334 µM (≈ 125 µg/mL) | 65.9% | 92.9% | 48.4% | 81.1%
13 | COc1cccc(C2=NN(c3ccccc3)C(c3ccc(SC)cc3)C2)c1 (configuration not stated) | 7.45% | 26.85% | 167 µM (≈ 62.5 µg/mL) | 334 µM (≈ 125 µg/mL) | 334 µM (≈ 125 µg/mL) | 668 µM (≈ 250 µg/mL) | 0.334 µM (≈ 0.125 µg/mL) | 334 µM (≈ 125 µg/mL) | 96.1% | 98.7% | 51.5% | 90.1%
14 | CSc1ccc(C2CC(c3ccc(Br)cc3)=NN2c2ccccc2)cc1 (configuration not stated) | 0% | 18.55% | 148 µM (≈ 62.7 µg/mL) | 295 µM (≈ 125 µg/mL) | 295 µM (≈ 125 µg/mL) | 591 µM (≈ 250 µg/mL) | 0.295 µM (≈ 0.125 µg/mL) | 295 µM (≈ 125 µg/mL) | 34.3% | 88.1% | 28.2% | 88.5%
15 | CSc1ccc(C2CC(c3cccc(N)c3)=NN2c2ccccc2)cc1 (configuration not stated) | 0% | 13.79% | 173 µM (≈ 62.2 µg/mL) | 347 µM (≈ 125 µg/mL) | 347 µM (≈ 125 µg/mL) | 694 µM (≈ 249 µg/mL) | 0.347 µM (≈ 0.125 µg/mL) | 347 µM (≈ 125 µg/mL) | 93.6% | 86.1% | 25% | 84.4%
16 | CSc1ccc(C2CC(c3ccccc3Cl)=NN2c2ccccc2)cc1 (configuration not stated) | 0% | 0% | 165 µM (≈ 62.5 µg/mL) | 330 µM (≈ 125 µg/mL) | 165 µM (≈ 62.5 µg/mL) | 330 µM (≈ 125 µg/mL) | 0.33 µM (≈ 0.125 µg/mL) | 330 µM (≈ 125 µg/mL) | 93.6% | 91% | 88.2% | 98.3%
